In the NIST ThermoML archive (doi:10.1016/j.jct.2012.12.022):
Several values for one entry are separate records, joined by “and”; a condition that tells them apart may be missing. Equal entries are not always repeated.

Test: mn = molality of the nth substance listed, in mol/kg
Conditions: 101 kPa, Liquid; for speed of sound: Sing-around technique in a fixed-path interferometer; for mass density: Vibrating tube method

O=C([O-])CC(O)(CC(=O)[O-])C(=O)[O-].[K+].[K+].[K+] [potassium citrate] + O
Conditions	mass density, 288.15 K [kg/m3]	mass density, 293.15 K [kg/m3]	mass density, 298.15 K [kg/m3]	mass density, 303.15 K [kg/m3]	speed of sound, 288.15 K [m/s]	speed of sound, 293.15 K [m/s]	speed of sound, 298.15 K [m/s]	speed of sound, 303.15 K [m/s]
m1 = 0.00361	999.9	998.989	997.839	996.386	1467.4	1483.1	1497.3	1509.7
m1 = 0.05427	1010.36	1009.25	1007.98	1006.52	1478.4	1493.8	1507.6	1519.7
m1 = 0.09681	1018.59	1017.45	1016.12	1014.61	1487.2	1502.1	1515.8	1527.7
m1 = 0.2001	1038.27	1037.36	1035.59	1034.01	1507	1521.7	1534.6	1545.9
m1 = 0.2914	1055.11	1053.58	1051.92	1050.18	1524.1	1537.8	1550.6	1561.2
m1 = 0.3859	1071.84	1070.62	1069.02	1066.43	1541.9	1555.4	1567.7	1577.7
m1 = 0.4948	1090.12	1088.43	1086.46	1084.57	1561.8	1572.8	1584.8	1595.2
m1 = 0.5799	1104.11	1102.38	1100.2	1098.17	1576.6	1588	1598.8	1609.1
m1 = 0.6983	1122.79	1120.89	1118.45	1116.27	1597.6	1608.2	1618.3	1627.5
m1 = 0.7576	1131.78	1129.85	1127.36	1125.04	1607.6	1618.9	1627.7	1637.2
m1 = 0.8939	1151.83	1149.58	1146.96	1144.2	1630.8	1641.3	1649.4	1657.5

O=C([O-])CC(O)(CC(=O)[O-])C(=O)[O-].[Na+].[Na+].[Na+] [trisodium citrate] + O
Conditions	mass density, 288.15 K [kg/m3]	mass density, 293.15 K [kg/m3]	mass density, 298.15 K [kg/m3]	mass density, 303.15 K [kg/m3]	speed of sound, 288.15 K [m/s]	speed of sound, 293.15 K [m/s]	speed of sound, 298.15 K [m/s]	speed of sound, 303.15 K [m/s]
m1 = 0.00247	999.597	998.701	997.537	996.131	1467.4	1483	1497.2	1509.6
m1 = 0.04871	1008.4	1007.39	1006.09	1004.6	1479.1	1493.7	1507.2	1519.6
m1 = 0.09738	1017.15	1016.08	1014.65	1013.09	1488.8	1503.5	1516.8	1529
m1 = 0.201	1034.85	1033.45	1031.8	1030.15	1509.2	1523.4	1536.7	1547.8
m1 = 0.2898	1049.56	1047.86	1046.01	1044.34	1526.1	1540	1552.4	1562.6
m1 = 0.3899	1065.78	1063.45	1061.6	1059.7	1545.2	1558.9	1570.2	1579
m1 = 0.4966	1082.16	1079.75	1077.6	1075.59	1565.2	1578	1587.1	1596.3
m1 = 0.6007	1097.37	1094.95	1092.45	1090.27	1583.7	1595	1603.5	1612.2
m1 = 0.7036	1111.65	1109.41	1106.71	1104.4	1601	1611.8	1617.6	1626.5
m1 = 0.7698	1120.84	1118.51	1115.58	1113.15	1612.3	1621.3	1628.1	1635.6
m1 = 0.9013	1138.29	1135.53	1132.31	1129.69	1636.1	1643.5	1646	1652.1

CC(=O)NCC(=O)O [N-acetylglycine] + O
Conditions	mass density, 288.15 K	mass density, 293.15 K	mass density, 298.15 K	mass density, 303.15 K	speed of sound, 288.15 K	speed of sound, 293.15 K	speed of sound, 298.15 K [m/s]	speed of sound, 303.15 K
m1 = 0.085	1001.93 kg/m3	1000.99 kg/m3	999.799 kg/m3	998.366 kg/m3	1470.3 m/s	1485.9 m/s	1499.7	1511.7 m/s
m1 = 0.18	1005.02 kg/m3 and 1004.89 kg/m3	1004.02 kg/m3 and 1003.9 kg/m3	1002.78 kg/m3 and 1002.66 kg/m3	1001.3 kg/m3 and 1001.18 kg/m3	1475.4 m/s and 1470.6 m/s	1490.5 m/s and 1490.7 m/s	1504	1515.6 m/s and 1515.5 m/s
